These results are taken from US20030166932A1 (priority 2002, published 2003).

A value given as a limit tells only on which side of the number the result lay.

The term EC50 denotes the concentration that produces a half-maximal response. One may read the Ki as the equilibrium dissociation constant of an inhibitor or competing ligand from its target.

Experiment [1] deals with T1, RXRβ (UniProt P28704).
T1 sequence (P28704 1-520): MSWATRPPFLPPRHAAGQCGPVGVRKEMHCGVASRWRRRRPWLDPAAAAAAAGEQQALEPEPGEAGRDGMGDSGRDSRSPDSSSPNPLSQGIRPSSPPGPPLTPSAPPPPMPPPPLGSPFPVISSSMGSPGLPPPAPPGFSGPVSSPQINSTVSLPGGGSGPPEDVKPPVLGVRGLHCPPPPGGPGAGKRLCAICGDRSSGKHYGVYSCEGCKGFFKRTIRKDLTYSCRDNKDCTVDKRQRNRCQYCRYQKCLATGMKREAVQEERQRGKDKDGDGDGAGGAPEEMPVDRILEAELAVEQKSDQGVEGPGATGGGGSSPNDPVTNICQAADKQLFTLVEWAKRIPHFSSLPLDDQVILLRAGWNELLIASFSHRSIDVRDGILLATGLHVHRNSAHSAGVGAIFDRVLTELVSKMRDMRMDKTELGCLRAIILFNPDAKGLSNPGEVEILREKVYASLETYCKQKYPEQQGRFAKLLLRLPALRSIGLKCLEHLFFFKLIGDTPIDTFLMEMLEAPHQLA
In words: holoreceptor transactivation assay. The experiment is classed as cell-based. To be noted: for EC50: NA = Not Active, read-out: RXR Trans. EC50 (nM) β; for % efficacy, RXR Trans. β: relative to 10^−6 M AGN 194204.
Description: (§1) The results obtained in this assay are expressed in EC50 numbers, as they are also in the chimeric receptor transactivation assay. The results of ligand binding assay are expressed in Kd numbers.
(§2) Particularly, the transactivation data pertaining to RAR receptors were obtained in the chimeric assay, and the data pertaining to transactivation of RXR receptors were obtained in the holoreceptor transactivation assay.

Experiment [2] has as its target T2, RXRγ (UniProt P28705).
T2 sequence (P28705 1-463): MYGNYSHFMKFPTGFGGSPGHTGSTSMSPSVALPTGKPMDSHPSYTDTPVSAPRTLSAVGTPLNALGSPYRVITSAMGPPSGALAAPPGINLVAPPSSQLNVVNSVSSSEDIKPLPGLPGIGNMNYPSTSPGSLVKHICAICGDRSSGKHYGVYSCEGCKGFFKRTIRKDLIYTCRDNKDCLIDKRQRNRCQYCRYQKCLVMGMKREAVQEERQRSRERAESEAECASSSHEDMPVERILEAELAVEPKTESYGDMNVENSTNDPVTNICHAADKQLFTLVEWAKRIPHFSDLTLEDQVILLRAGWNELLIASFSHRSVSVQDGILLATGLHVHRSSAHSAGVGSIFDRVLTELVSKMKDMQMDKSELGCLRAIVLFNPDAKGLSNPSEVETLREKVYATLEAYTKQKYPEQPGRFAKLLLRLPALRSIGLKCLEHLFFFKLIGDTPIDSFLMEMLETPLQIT
The experiment is described as follows: holoreceptor transactivation assay. The experiment is classed as cell-based. The conditions noted are these: for EC50: NA = Not Active, read-out: RXR Trans. EC50 (nM) Y; for % efficacy, RXR Trans. Y: relative to 10^−6 M AGN 194204.
Description: as §1, §2

Experiment [3] deals with T3, RARβ (Homo sapiens, UniProt P10826).
T3 sequence (P10826 1-455): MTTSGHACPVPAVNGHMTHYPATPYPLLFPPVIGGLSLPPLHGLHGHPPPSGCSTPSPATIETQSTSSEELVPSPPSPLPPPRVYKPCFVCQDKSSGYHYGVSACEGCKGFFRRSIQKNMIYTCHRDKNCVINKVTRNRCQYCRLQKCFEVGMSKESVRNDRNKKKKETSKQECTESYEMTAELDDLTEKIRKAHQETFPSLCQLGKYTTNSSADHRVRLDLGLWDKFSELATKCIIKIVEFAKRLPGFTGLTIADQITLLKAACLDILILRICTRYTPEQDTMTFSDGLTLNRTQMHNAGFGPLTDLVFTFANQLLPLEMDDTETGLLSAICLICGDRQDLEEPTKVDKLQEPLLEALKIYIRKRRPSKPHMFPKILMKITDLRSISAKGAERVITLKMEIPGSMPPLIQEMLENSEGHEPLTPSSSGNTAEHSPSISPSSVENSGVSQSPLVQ
The experiment is described as follows: ligand binding assay. To be noted: read-out: RAR Bind. Ki (nM) β.
Description: as §1, §2

Experiment [4] concerns the target T1, RXRβ. In words: ligand binding assay. To be noted: read-out: RXR Bind Ki (nM) β.
Description: as §1, §2
Experiment [5] deals with T4, RXRα (Homo sapiens, UniProt P19793).
T4 sequence (P19793 1-462): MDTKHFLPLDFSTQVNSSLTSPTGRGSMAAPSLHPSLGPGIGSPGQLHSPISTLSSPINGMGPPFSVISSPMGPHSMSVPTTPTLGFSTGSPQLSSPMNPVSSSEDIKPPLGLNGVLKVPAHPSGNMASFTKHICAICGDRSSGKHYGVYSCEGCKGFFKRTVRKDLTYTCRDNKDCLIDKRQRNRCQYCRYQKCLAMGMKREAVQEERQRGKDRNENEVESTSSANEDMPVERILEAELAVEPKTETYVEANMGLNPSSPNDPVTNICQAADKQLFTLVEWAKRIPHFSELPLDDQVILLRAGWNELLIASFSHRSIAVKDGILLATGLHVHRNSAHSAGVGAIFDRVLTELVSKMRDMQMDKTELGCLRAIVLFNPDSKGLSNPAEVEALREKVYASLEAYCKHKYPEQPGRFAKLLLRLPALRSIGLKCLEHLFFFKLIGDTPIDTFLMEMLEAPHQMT
The experiment is described as follows: ligand binding assay.
Description: as §1, §2

The target in experiment [6] is T4, RXRα. The experiment is described as follows: holoreceptor transactivation assay. The conditions noted are these: for Emax: read-out: % efficacy, RXR Trans. α.
Description: as §1, §2
The target of experiment [7] is T5, RARγ (Homo sapiens, UniProt P13631).
T5 sequence (P13631 1-454): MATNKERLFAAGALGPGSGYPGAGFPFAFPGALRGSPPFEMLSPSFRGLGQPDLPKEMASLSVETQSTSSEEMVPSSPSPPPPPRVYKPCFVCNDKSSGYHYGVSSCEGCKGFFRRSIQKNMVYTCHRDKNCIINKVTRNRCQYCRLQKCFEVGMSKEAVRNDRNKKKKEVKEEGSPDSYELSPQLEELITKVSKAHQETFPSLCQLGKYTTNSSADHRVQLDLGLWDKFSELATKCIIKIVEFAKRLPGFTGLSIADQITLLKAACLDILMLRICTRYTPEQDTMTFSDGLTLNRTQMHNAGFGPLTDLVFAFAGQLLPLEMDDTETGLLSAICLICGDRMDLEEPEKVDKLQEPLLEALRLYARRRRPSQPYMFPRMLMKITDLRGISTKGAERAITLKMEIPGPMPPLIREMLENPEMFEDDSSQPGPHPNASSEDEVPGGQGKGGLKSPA
In words: ligand binding assay. To be noted: read-out: RAR Bind. Ki (nM) Y.
Description: as §1, §2

Consider `CCN(c1ccc(C(=O)O)cc1)c1cc2c(cc1C)C(C)(C)CC=C2C` [Compound 23, 4-[Ethyl(3,5,5,8-tetramethyl-5,6-dihydronaphthalen-2-yl)amino]benzoic acid], for which the concentration for a half-maximal effect (EC50) in experiment [1] worked out at 149 nM; in experiment [2], 41 nM; in experiment [6], 21 nM. Moreover, the “% efficacy, RXR Trans. β” value in experiment [1] is reported as “(101) %”. In experiment [2], the “% efficacy, RXR Trans. Y” value is given as “(119) %”. The Ki in experiment [3] stood at 16000 nM; in experiment [4], 309 nM; in experiment [5], 8 nM. Besides, the Emax in experiment [6] was 101%.

In the case of `CCC1=CCC(C)(C)c2cc(C)c(N(CC)c3ccc(C(=O)O)cc3)cc21` [Compound 24, 4-[Ethyl(8-ethyl-3,5,5-trimethyl-5,6-dihydronaphthalen-2-yl)amino]benzoic acid], the EC50 in experiment [1] came to 10 nM; in experiment [2], 2 nM; in experiment [6] it was 1 nM. In experiment [1], the “% efficacy, RXR Trans. β” value is reported as “(96) %”. For the same molecule, in experiment [2], the “% efficacy, RXR Trans. Y” value was “(102) %”. The Ki in experiment [3] amounted to 9100 nM; in experiment [7] it was 13000 nM; in experiment [4] it was 66 nM; in experiment [5], 29 nM. Moreover, the Emax in experiment [6] came out at 100%.

As for `CC1=CCC(C)(C)c2cc(N(CC3CC3)c3ccc(C(=O)O)cc3)c(C)cc21` [Compound 47, 4-[Cyclopropylmethyl(3,5,8,8-tetramethyl-7,8-dihydronaphthalen-2-yl)amino]benzoic acid], the “% efficacy, RXR Trans. Y” value in experiment [2] is recorded as “(70) %”. Moreover, the Ki in experiment [3] is more than 10000 nM; in experiment [7] it was more than 10000 nM; in experiment [4], more than 1000 nM; in experiment [5], 2500 nM. In addition, the Emax in experiment [6] is 65%.

As to `CCC1=CCC(C)(C)c2cc(N(CC)c3ccc(C(=O)O)cc3)c(C)cc21` [Compound 59, 4-[Ethyl(5-ethyl-3,8,8-trimethyl-7,8-dihydronaphthalen-2-yl)amino]benzoic acid], the “% efficacy, RXR Trans. β” value in experiment [1] is reported as “(100) %”. Further, in experiment [2], the “% efficacy, RXR Trans. Y” value is listed as “(100) %”. For the same molecule, the Ki in experiment [3] was more than 10000 nM; in experiment [7], more than 10000 nM; in experiment [5] it was 282 nM. Further, the Emax in experiment [6] is 100%.

On to `CCCCCCOc1cc2c(cc1N(CC)c1ccc(C(=O)O)cc1)C(C)=CCC2(C)C` [Compound 142, 4-[Ethyl-(3-n-hexyloxy-5,5,8-trimethyl-5,6-dihydronaphthalen-2-yl)amino]benzoic Acid], for which the inhibition constant (Ki) in experiment [3] is 1000 nM; in experiment [7], more than 1000 nM; in experiment [4], 111 nM; in experiment [5], 190 nM.

`CCCCCCCOc1cc2c(cc1N(CC)c1ccc(C(=O)O)cc1)C(C)=CCC2(C)C` [Compound 143, 4[Ethyl-(3-n-heptyloxy-5,5,8-trimethyl-5,6-dihydronaphthalen-2-yl)amino]benzoic acid]: the Ki was found to be 1700 nM in experiment [3], 8400 nM in experiment [7], 449 nM in experiment [4] and 175 nM in experiment [5].

For `CCN(c1ccc(C(=O)O)cc1)c1cc2c(cc1OCc1ccccc1)C(C)(C)CC=C2C` [Compound 144, 4-[(3-Benzyloxy-5,5,8-trimethyl-5,6-dihydronaphthalen-2-yl)ethylamino]benzoic acid], the inhibition constant (Ki) came to 2700 nM in experiment [3], 8100 nM in experiment [7], 224 nM in experiment [4] and 77 nM in experiment [5].

As to `CCCCCCOc1cc2c(cc1N(CCC)c1ccc(C(=O)O)cc1)C(C)=CCC2(C)C` [Compound 145, 4-[(3-n-Hexyloxy-5,5,8-trimethyl-5,6-dihydronaphthalen-2-yl)-n-propylamino]benzoic acid], in experiment [2], the EC50 was more than 1000 nM. Further, in experiment [2], the “% efficacy, RXR Trans. Y” value was “(10) %”. Moreover, the Ki in experiment [3] worked out at 771 nM; in experiment [7], 6000 nM; in experiment [4], 475 nM; in experiment [5] it was 229 nM.

Regarding `CCCCCCCOc1cc2c(cc1N(CCC)c1ccc(C(=O)O)cc1)C(C)=CCC2(C)C` [Compound 146, 4-[(3-n-Heptyloxy-5 5,8-trimethyl-5,6-dihydronaphthalen-2-yl)-n-propylamino]benzoic acid], the Ki was 576 nM in experiment [3], 2800 nM in experiment [7], 429 nM in experiment [4] and 206 nM in experiment [5].

For the molecule `CCCN(c1ccc(C(=O)O)cc1)c1cc2c(cc1OCc1ccccc1)C(C)(C)CC=C2C` [Compound 147, 4-[(3-Benzyloxy-5 5,8-trimethyl-5,6-dihydronaphthalen-2-yl)-n-propylamino]benzoic acid], the concentration giving a half-maximal response (EC50) in experiment [2] was 280 nM. The “% efficacy, RXR Trans. Y” value in experiment [2] is “(13) %”. Besides, the Ki in experiment [3] stood at 4800 nM; in experiment [7], 15000 nM; in experiment [4] it was 501 nM; in experiment [5] it was 241 nM.

As for `CCCCCCOc1cc2c(cc1N(CC)c1ccc(C(=O)O)cc1)C(C(C)C)=CCC2(C)C` [Compound 153, 4-[Ethyl-(3-n-hexyloxy-8-isopropyl-5,5-dimethyl-5,6-dihydronaphthalen-2-yl)amino]benzoic acid], the inhibition constant Ki in experiment [3] was 4800 nM; in experiment [7] it was 8900 nM; in experiment [4], 106 nM; in experiment [5], 22 nM.

For the molecule `CCN(c1ccc2c(c1)C(C(C)(C)C)=CCC2(C)C)c1ccc(C(=O)O)cn1` [Compound 173, 6-[(8-t-Butyl-5,5-dimethyl-5,6-dihydro-naphthalen-2-yl)-ethyl-amino]-nicotinic acid], in experiment [1], the EC50 stood at 9 nM and the “% efficacy, RXR Trans. β” value is “(132) %”. Moreover, in experiment [2], the EC50 amounted to 2 nM and the “% efficacy, RXR Trans. Y” value was “(125) %”. In addition, in experiment [6], the half-maximal effective concentration (EC50) came to 1 nM and the Emax was 120%.
